Measurements reported in patent publication US7342027B2 (Yuhan Corporation, priority 2002, dated 2008).

molecular target: T1, Recombinant human cathepsin K (Homo sapiens, UniProt P43235); assay: Inhibition of cathepsin K activity (Z-Phe-Arg-AMC fluorescence assay); type: biochemical; conditions: 25 uM Z-Phe-Arg-AMC, pH 5.5, 1 hour at 37° C.
T1 construct: made in house
T1 sequence (P43235 115-329): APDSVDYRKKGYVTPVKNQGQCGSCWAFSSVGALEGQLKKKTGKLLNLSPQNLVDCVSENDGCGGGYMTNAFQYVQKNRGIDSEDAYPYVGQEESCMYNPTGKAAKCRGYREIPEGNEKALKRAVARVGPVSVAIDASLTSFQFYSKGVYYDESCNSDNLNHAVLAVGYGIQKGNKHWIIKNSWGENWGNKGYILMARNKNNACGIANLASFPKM
Experimental: Test 1: Inhibition of Cathepsin K Activity
Recombinant human cathepsin K was prepared in accordance with Biol, Pharm. Bull, 19(8), 1026-1031 (1996) and J. Biol. Chem. 271, 2126-2132 (1996). Stock solutions of 2.5 mM Z-Phe-Arg-AMC (BACHEM, 1-1160) and all inhibitors were prepared in dimethyl sulfoxide. In vitro assays for cathepsin K were conducted with 25 uM Z-Phe-Arg-AMC as a substrate at pH 5.5 in 100 mM Na acetate buffer containing 20 mM cysteine and 5 mM EDTA in the presence of 2% final concentration of DMSO. Reaction was initiated by the addition of enzyme to samples, which were then incubated for 1 hour at 37° C. The fluorescence was monitored at 460 nm (excitation wavelength 360 nm) using fluorescence plate reader.
The concentrations of the test compounds, which inhibit 50% of cathepsin K activity, are represented as IC50 in Table 1.

Row | IC50 [nM] | Structure (SMILES)
1 | 5.05 | CS(=O)(=O)c1ccc(N2CCC(NC(=O)C3(NC(=O)c4cc5ccccc5o4)CCCCC3)C(=O)C2)cc1 (stereo not drawn) [Example 5, 4-[N-[1-[N-(benzofuran-2-ylcarbonyl)amino]cyclohexanecarbonyl]amino]-1-(4-methanesulfonylphenyl)piperidin-3-one]
2 | 2.69 | CC(=O)c1ccccc1N1CCC(NC(=O)C2(NC(=O)c3cc4ccccc4o3)CCCCC2)C(=O)C1 (stereo not drawn) [Example 6, 4-[N-[1-[N-(benzofuran-2-ylcarbonyl)amino]cyclohexanecarbonyl]amino]-1-(2-acetylphenyl)piperidin-3-one]
3 | 6.24 | N#Cc1ccc(N2CCC(NC(=O)C3(NC(=O)c4cc5ccccc5o4)CCCCC3)C(=O)C2)cc1 (stereo not drawn) [Example 7, 4-[N-[1-[N-(benzofuran-2-ylcarbonyl)amino]cyclohexanecarbonyl]amino]-1-(4-cyanophenyl)piperidin-3-one]
4 | 10.4 | N#Cc1c(F)cccc1N1CCC(NC(=O)C2(NC(=O)c3cc4ccccc4o3)CCCCC2)C(=O)C1 (stereo not drawn) [Example 8, 4-[N-[1-[N-(benzofuran-2-ylcarbonyl)amino]cyclohexanecarbonyl]amino]-1-(2-cyano-3-fluorophenyl)piperidin-3-one]
5 | 1.45 | O=Cc1ccccc1N1CCC(NC(=O)C2(NC(=O)c3cc4ccccc4o3)CCCCC2)C(=O)C1 (stereo not drawn) [Example 15, 4-[N-[1-[N-(benzofuran-2-ylcarbonyl)amino]cyclohexanecarbonyl]amino]-1-(2-formylphenyl)piperidin-3-one]
6 | 10.8 | O=C(NC1(C(=O)NC2CCN(c3ccc([N+](=O)[O-])cc3)CC2=O)CCCCC1)c1cc2ccccc2o1 (stereo not drawn) [Example 16, 4-[N-[1-[N-(benzofuran-2-ylcarbonyl)amino]cyclohexanecarbonyl]amino]-1-(4-nitrophenyl)piperidin-3-one]
7 | 4.41 | O=Cc1c(Cl)cccc1N1CCC(NC(=O)C2(NC(=O)c3cc4ccccc4o3)CCCCC2)C(=O)C1 (stereo not drawn) [Example 19, 4-[N-[1-[N-(benzofuran-2-ylcarbonyl)amino]cyclohexanecarbonyl]amino]-1-(3-chloro-2-formylphenyl)piperidin-3-one]
8 | 19.9 | O=C(NC1(C(=O)NC2CCN(c3ccccc3N3CCOCC3)CC2=O)CCCCC1)c1cc2ccccc2o1 (stereo not drawn) [Example 26, 4-[N-[1-[N-(benzofuran-2-ylcarbonyl)amino]cyclohexanecarbonyl]amino]-1-[2-(4-morpholino)phenyl]piperidin-3-one]
9 | 8.07 | CCOc1ccccc1N1CCC(NC(=O)C2(NC(=O)c3cc4ccccc4o3)CCCCC2)C(=O)C1 (stereo not drawn) [Example 27, 4-[N-[1-[N-(benzofuran-2-ylcarbonyl)amino]cyclohexanecarbonyl]amino]-1-(2-ethoxyphenyl)piperidin-3-one]
10 | 1.93 | O=C(NC1(C(=O)NC2CCN(c3ccccc3-c3ccco3)CC2=O)CCCCC1)c1cc2ccccc2o1 (stereo not drawn) [Example 34, 4-[N-[1-[N-(benzofuran-2-ylcarbonyl)amino]cyclohexanecarbonyl]amino]-1-[2-(2-furyl)phenyl]piperidin-3-one]
11 | 2.35 | O=C(NC1(C(=O)NC2CCN(c3ccccc3Br)CC2=O)CCCCC1)c1cc2ccccc2o1 (stereo not drawn) [Example 35, 4-[N-[1-[N-(benzofuran-2-ylcarbonyl)amino]cyclohexanecarbonyl]amino]-1-(2-bromophenyl)piperidin-3-one]
12 | 2.13 | CSc1ccccc1N1CCC(NC(=O)C2(NC(=O)c3cc4ccccc4o3)CCCCC2)C(=O)C1 (stereo not drawn) [Example 36, 4-[N-[1-[N-(benzofuran-2-ylcarbonyl)amino]cyclohexanecarbonyl]amino]-1-(2-methylthiophenyl)piperidin-3-one]
13 | 7.73 | CC(C)Oc1ccccc1N1CCC(NC(=O)C2(NC(=O)c3cc4ccccc4o3)CCCCC2)C(=O)C1 (stereo not drawn) [Example 41, 4-[N-[1-[N-(benzofuran-2-ylcarbonyl)amino]cyclohexanecarbonyl]amino]-1-(2-isopropoxyphenyl)piperidin-3-one]
14 | 3.87 | CCSc1ccccc1N1CCC(NC(=O)C2(NC(=O)c3cc4ccccc4o3)CCCCC2)C(=O)C1 (stereo not drawn) [Example 42, 4-[N-[1-[N-(benzofuran-2-ylcarbonyl)amino]cyclohexanecarbonyl]amino]-1-(2-ethylthiophenyl)piperidin-3-one]
15 | 4.97 | CC1(C)CN(c2ccccc2N2CCC(NC(=O)C3(NC(=O)c4cc5ccccc5o4)CCCCC3)C(=O)C2)C1=O (stereo not drawn) [Example 43, 4-[N-[1-[N-(benzofuran-2-ylcarbonyl)amino]cyclohexanecarbonyl]amino]-1-[2-(3,3-dimethylazetidin-2-one-1-yl)phenyl]piperidin-3-one]
16 | 6.8 | O=C(NC1(C(=O)NC2CCN(c3ccccc3N3CCCCC3=O)CC2=O)CCCCC1)c1cc2ccccc2o1 (stereo not drawn) [Example 45, 4-[N-[1-[N-(benzofuran-2-ylcarbonyl)amino]cyclohexanecarbonyl]amino]-1-[2-(piperidin-2-one-1-yl)phenyl]piperidin-3-one]
17 | 0.67 | CCOC(=O)Nc1ccccc1N1CCC(NC(=O)C2(NC(=O)c3cc4ccccc4o3)CCCCC2)C(=O)C1 (stereo not drawn) [Example 48, 4-[N-[1-[N-(benzofuran-2-ylcarbonyl)amino]cyclohexanecarbonyl]amino]-1-[2-[N-(ethoxycarbonyl)amino]phenyl]piperidin-3-one]
18 | 0.45 | COC(=O)Nc1ccccc1N1CCC(NC(=O)C2(NC(=O)c3cc4ccccc4o3)CCCCC2)C(=O)C1 (stereo not drawn) [Example 49, 4-[N-[1-[N-(benzofuran-2-ylcarbonyl)amino]cyclohexanecarbonyl]amino]-1-[2-[N-(methoxycarbonyl)amino]phenyl]piperidin-3-one]
19 | 1.2 | O=C(CCCCl)Nc1ccccc1N1CCC(NC(=O)C2(NC(=O)c3cc4ccccc4o3)CCCCC2)C(=O)C1 (stereo not drawn) [Example 50, 4-[N-[1-[N-(benzofuran-2-ylcarbonyl)amino]cyclohexanecarbonyl]amino]-1-[2-[N-(4-chlorobutyryl)amino]phenyl]piperidin-3-one]
20 | 4.11 | CC(C)C(=O)Nc1ccccc1N1CCC(NC(=O)C2(NC(=O)c3cc4ccccc4o3)CCCCC2)C(=O)C1 (stereo not drawn) [Example 51, 4-[N-[1-[N-(benzofuran-2-ylcarbonyl)amino]cyclohexanecarbonyl]amino]-1-[2-[N-(isobutyryl)amino]phenyl]piperidin-3-one]
21 | 1.22 | O=C(NC1(C(=O)NC2CCN(c3ccccc3NC(=O)C3CC3)CC2=O)CCCCC1)c1cc2ccccc2o1 (stereo not drawn) [Example 53, 4-[N-[1-[N-(benzofuran-2-ylcarbonyl)amino]cyclohexanecarbonyl]amino]-1-[2-[N-(cyclopropanecarbonyl)amino]phenyl]piperidin-3-one]
22 | 6.09 | O=C(CCc1ccccc1)Nc1ccccc1N1CCC(NC(=O)C2(NC(=O)c3cc4ccccc4o3)CCCCC2)C(=O)C1 (stereo not drawn) [Example 54, 4-[N-[1-[N-(benzofuran-2-ylcarbonyl)amino]cyclohexanecarbonyl]amino]-1-[2-[N-(3-phenylpropionyl)amino]phenyl]piperidin-3-one]
23 | 1.62 | CC(=O)Nc1ccccc1N1CCC(NC(=O)C2(NC(=O)c3cc4ccccc4o3)CCCCC2)C(=O)C1 (stereo not drawn) [Example 56, 4-[N-[1-[N-(benzofuran-2-ylcarbonyl)amino]cyclohexanecarbonyl]amino]-1-[2-[N-(acetyl)amino]phenyl]piperidin-3-one]
24 | 4.82 | O=C(NC1(C(=O)NC2CCN(c3ccccc3-n3cnnn3)CC2=O)CCCCC1)c1cc2ccccc2o1 (stereo not drawn) [Example 58, 4-[N-[1-[N-(benzofuran-2-ylcarbonyl)amino]cyclohexanecarbonyl]amino]-1-[2-(tetrazol-1-yl)phenyl]piperidin-3-one]
25 | 4.77 | O=C(NC1(C(=O)NC2CCN(c3ccccc3-c3nnn[nH]3)CC2=O)CCCCC1)c1cc2ccccc2o1 (stereo not drawn) [Example 67, 4-[N-[1-[N-(benzofuran-2-ylcarbonyl)amino]cyclohexanecarbonyl]amino]-1-[2-(1H-tetrazol-5-yl)phenyl]piperidin-3-one]
26 | 3.12 | C[S+]([O-])c1ccccc1N1CCC(NC(=O)C2(NC(=O)c3cc4ccccc4o3)CCCCC2)C(=O)C1 (stereo not drawn) [Example 68]
27 | 1.59 | CC[S+]([O-])c1ccccc1N1CCC(NC(=O)C2(NC(=O)c3cc4ccccc4o3)CCCCC2)C(=O)C1 (stereo not drawn) [Example 69]
28 | 1.73 | CC(C)[S+]([O-])c1ccccc1N1CCC(NC(=O)C2(NC(=O)c3cc4ccccc4o3)CCCCC2)C(=O)C1 (stereo not drawn) [Example 70, 4-[N-[1-[N-(benzofuran-2-ylcarbonyl)amino]cyclohexanecarbonyl]amino]-1-(2-isopropylsulfinylphenyl)piperidin-3-one]
29 | 5.97 | CS(=O)(=O)c1c(F)cccc1N1CCC(NC(=O)C2(NC(=O)c3ccco3)CCCCC2)C(=O)C1 (stereo not drawn) [Example 77, 4-[N-[1-[N-(furan-2-ylcarbonyl)amino]cyclohexanecarbonyl]amino]-1-(3-fluoro-2-methylsulfonylphenyl)piperidin-3-one]

Row | Structure (SMILES) | IC50 [nM]
30 | CC(C)(C)OC(=O)c1ccccc1N1CCC(NC(=O)C2(NC(=O)c3cc4ccccc4o3)CCCCC2)C(=O)C1 (stereo not drawn) [Example 37, 4-[N-[1-[N-(benzofuran-2-ylcarbonyl)amino]cyclohexanecarbonyl]amino]-1-[2-(tert-butoxycarbonyl)phenyl]piperidin-3-one] | 3.78
